# Measurements: US9499550B2 (BRISTOL-MYERS SQUIBB COMPANY, priority 2012, dated 2016)
# Read-outs that look alike come from different tables or passages of the source.
# What was measured:
# [1] = system: HCV genotype 1b (Con1) replicon in HUH-7 cells; experiment: HCV replicon luciferase reporter assay, genotype 1b; assay type: cell-based; conditions: Hepatitis C virus, Huh-7, 72 h, 3 days incubation
# Procedure, shortened: (§1)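 Replicon inhibition for both genotypes was measured as Renilla luciferase signal (EnduRen, 7.5 μM final, 2 h) after 3-day, 37° C exposure of replicon-bearing HUH-7 cells in 4% FCS DMEM, 0.5% DMSO. The 1b construct carries S1179I; the 1a H77 construct carries P1496L and S2204I. Twenty-point, 3-fold dilutions were fitted four-parametrically for EC50, and CC50 was taken from multiplexed Cell Titer-Blue.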
# [2] = system: HCV genotype 1a (H77 strain) replicon in HUH-7 cells; experiment: HCV replicon luciferase reporter assay, genotype 1a; assay type: cell-based; conditions: Hepatitis C virus, Huh-7, 72 h, 3 days incubation
# Procedure, shortened: as §1
# [3] = HCV genotype 1b replicon luciferase, read-out: LE_1b (EC50, range)
# [4] = HCV genotype 1a replicon luciferase, read-out: LE_1a (EC50, range)
# [5] = HCV genotype 1b replicon luciferase assay, range class, read-out: LE_1b (EC50, range)
# [6] = HCV genotype 1a replicon luciferase assay, range class, read-out: LE_1a (EC50, range)
# [7] = GETYPE1B, HCV genotype 1b replicon luciferase, read-out: LE_1b (EC50, range)
# [8] = GETYPE1A, HCV genotype 1a replicon luciferase, read-out: LE_1a (EC50, range)
smiles,measurement,setting,value
"C[C@H]1CC/C=C\[C@@H]2C[C@@]2(C(=O)NS(=O)(=O)C2(CF)CC2)NC(=O)[C@@H]2C[C@@H](Oc3nc4c(c5ccccc35)OCCC4)CN2C(=O)[C@@H](NC(=O)OC(C)(C)C(C)(F)F)[C@H](C)C1 [Compound 6031, 3,3-difluoro-2-methylbutan-2-yl((2R,6S,7R,9S,13aS,14aR,16aS,Z)-2-((3,4-dihydro-2H-pyrano[3,2-c]isoquinolin-6-yl)oxy)-14a-(((1-(fluoromethyl)cyclopropyl)sulfonyl)carbamoyl)-7,9-dimethyl-5,16-dioxo-1,2,3,5,6,7,8,9,10,11,13a,14,14a,15,16,16a-hexadecahydrocyclopropa[e]pyrrolo[1,2-a][1,4]diazacyclopentadecin-6-yl)carbamate]",EC50,[1]; [3],4.82 to 103 nM
same,EC50,[2]; [4],4.82 to 103 nM
"COc1ccc2c(O[C@@H]3C[C@H]4C(=O)N[C@]5(C(=O)NS(=O)(=O)C6CC6)C[C@H]5/C=C\CC[C@@H](C)C[C@@H](C)[C@H](NC(=O)OC(C)(C)C)C(=O)N4C3)nc(-c3ccc(OC(C)C)cc3)nc2c1 [Compound 3017, tert-butyl ((2R,6S,7R,9R,13aS,14aR,16aS,Z)-14a-((cyclopropylsulfonyl)carbamoyl)-2-((2-(4-isopropoxyphenyl)-7-methoxyquinazolin-4-yl)oxy)-7,9-dimethyl-5,16-dioxo-1,2,3,5,6,7,8,9,10,11,13a,14,14a,15,16,16a-hexadecahydrocyclopropa[e]pyrrolo[1,2-a][1,4]diazacyclopentadecin-6-yl)carbamate]",EC50,[1]; [5],< 5.46 nM
same,EC50,[2]; [6],< 5.46 nM
"CCCOc1cc2c(Cl)cccc2c(O[C@@H]2C[C@H]3C(=O)N[C@]4(C(=O)NS(=O)(=O)C5CC5)C[C@H]4/C=C\CC[C@@H](C)C[C@@H](C)[C@H](NC(=O)OC4C[C@@H]5C[C@H]5C4)C(=O)N3C2)n1 [Compound 1086, (1S,5S)-bicyclo[3.1.0]hexan-3-yl((2R,6S,7R,9R,13aS,14aR,16aS,Z)-2-((5-chloro-3-propoxyisoquinolin-1-yl)oxy)-14a-((cyclopropylsulfonyl)carbamoyl)-7,9-dimethyl-5,16-dioxo-1,2,3,5,6,7,8,9,10,11,13a,14,14a,15,16,16a-hexadecahydrocyclopropa[e]pyrrolo[1,2-a][1,4]diazacyclopentadecin-6-yl)carbamate]",EC50,[1]; [5],< 5.46 nM
same,EC50,[2]; [6],< 5.46 nM
CC[C@@H]1C[C@H](C)CC/C=C\[C@@H]2C[C@@]2(C(=O)NS(=O)(=O)C2CC2)NC(=O)[C@@H]2C[C@@H](Oc3cc(OC)nc4cc(OC)c(F)cc34)CN2C(=O)[C@H]1NC(=O)OC(C)(C)C(C)(F)F [Compound 1202],EC50,[1]; [7],0.51 to 1 nM
same,EC50,[2]; [8],1.01 to 5 nM
COc1ccc2c(O[C@@H]3C[C@H]4C(=O)N[C@]5(C(=O)NS(=O)(=O)C6(CF)CC6)C[C@H]5/C=C\CC[C@@H](C)C[C@@H](C)[C@H](NC(=O)OC(C)(C)C(F)(F)F)C(=O)N4C3)nccc2c1 [Compound 4151],EC50,[1]; [7],< 5.46 nM
same,EC50,[2]; [8],< 5.46 nM
"COc1cc2c(OC)cnc(O[C@@H]3C[C@H]4C(=O)N[C@]5(C(=O)NS(=O)(=O)C6CC6)C[C@H]5/C=C\CC[C@@H](C)C[C@@H](C)[C@H](NC(=O)OC(C)(C)C)C(=O)N4C3)c2cc1F [Compound 4074, tert-butyl (2R,6S,7R,9R,13aS,14aR,16aS,Z)-14a-(cyclopropylsulfonylcarbamoyl)-2-(7-fluoro-4,6-dimethoxyisoquinolin-1-yloxy)-7,9-dimethyl-5,16-dioxo-1,2,3,5,6,7,8,9,10,11,13a,14,14a,15,16,16a-hexadecahydrocyclopropa[e]pyrrolo[1,2-a][1,4]diazacyclopentadecin-6-ylcarbamate]",EC50,[1]; [3],< 5.46 nM
same,EC50,[2]; [4],< 5.46 nM
"COc1ccc2c(O[C@@H]3C[C@H]4C(=O)N[C@]5(C(=O)NS(=O)(=O)C6CC6)C[C@H]5/C=C\CC[C@H](C)C[C@@H](C)[C@H](NC(=O)OC(C)(C)C)C(=O)N4C3)nccc2c1F [Compound 3147, tert-butyl ((2R,6S,7R,9S,13aS,14aR,16aS,Z)-14a-((cyclopropylsulfonyl)carbamoyl)-2-((5-fluoro-6-methoxyisoquinolin-1-yl)oxy)-7,9-dimethyl-5,16-dioxo-1,2,3,5,6,7,8,9,10,11,13a,14,14a,15,16,16a-hexadecahydrocyclopropa[e]pyrrolo[1,2-a][1,4]diazacyclopentadecin-6-yl)carbamate]",EC50,[1]; [5],< 5.46 nM
same,EC50,[2]; [6],4.82 to 103 nM
"COc1ccc2nc(C(F)(F)F)c(O[C@@H]3C[C@H]4C(=O)N[C@]5(C(=O)NS(=O)(=O)C6(C)CC6)C[C@H]5/C=C\CC[C@@H](C)C[C@@H](C)[C@H](NC(=O)OC(C)(C)C)C(=O)N4C3)nc2c1 [Compound 4183, tert-butyl (2R,6S,7R,9R,13aS,14aR,16aS,Z)-2-(7-methoxy-3-(trifluoromethyl)quinoxalin-2-yloxy)-7,9-dimethyl-14a-(1-methylcyclopropylsulfonylcarbamoyl)-5,16-dioxo-1,2,3,5,6,7,8,9,10,11,13a,14,14a,15,16,16a-hexadecahydrocyclopropa[e]pyrrolo[1,2-a][1,4]diazacyclopentadecin-6-ylcarbamate]",EC50,[1]; [3],< 5.46 nM
same,EC50,[2]; [4],< 5.46 nM
COc1ccc2nc(O[C@@H]3C[C@H]4C(=O)N[C@]5(C(=O)NS(=O)(=O)C6(C)CC6)C[C@H]5/C=C\CC[C@@H](C)C[C@@H](C)[C@H](NC(=O)OC(C)(C)C(F)(F)F)C(=O)N4C3)cnc2c1 [Compound 4163],EC50,"[1]; GETYPE1B, HCV genotype 1b replicon luciferase, read-out: LE_1b (EC50)",1.89 nM
same,EC50,[1]; [7],< 5.46 nM
same,EC50,"[2]; GETYPE1A, HCV genotype 1a replicon luciferase, read-out: LE_1a (EC50)",9.8 nM
same,EC50,[2]; [8],4.82 to 103 nM
"COc1cc2cc(-c3ccc(OC(C)C)cc3)nc(O[C@@H]3C[C@H]4C(=O)N[C@]5(C(=O)NS(=O)(=O)C6(C)CC6)C[C@H]5/C=C\CC[C@H](C)C[C@@H](C)[C@H](NC(=O)O[C@@H]5C[C@@H]6C[C@@H]6C5)C(=O)N4C3)c2cc1F [Compound 3191, (1R,3r,5S)-bicyclo[3.1.0]hexan-3-yl((2R,6S,7R,9S,13aS,14aR,16aS,Z)-2-((7-fluoro-3-(4-isopropoxyphenyl)-6-methoxyisoquinolin-1-yl)oxy)-7,9-dimethyl-14a-(((1-methylcyclopropyl)sulfonyl)carbamoyl)-5,16-dioxo-1,2,3,5,6,7,8,9,10,11,13a,14,14a,15,16,16a-hexadecahydrocyclopropa[e]pyrrolo[1,2-a][1,4]diazacyclopentadecin-6-yl)carbamate]",EC50,[1]; [3],< 5.46 nM
same,EC50,[2]; [4],4.82 to 103 nM
"COc1ccc2c(O[C@@H]3C[C@H]4C(=O)N[C@]5(C(=O)NS(=O)(=O)C6CC6)C[C@H]5/C=C\CC[C@H](C)C[C@@H](C)[C@H](NC(=O)OC(C)(C)C(C)(F)F)C(=O)N4C3)nc(-c3ccc(OC(C)C)cn3)cc2c1 [Compound 5474, 3,3-difluoro-2-methylbutan-2-yl((2R,6S,7R,9S,13aS,14aR,16aS,Z)-14a-((cyclopropylsulfonyl)carbamoyl)-2-((3-(5-isopropoxypyridin-2-yl)-6-methoxyisoquinolin-1-yl)oxy)-7,9-dimethyl-5,16-dioxo-1,2,3,5,6,7,8,9,10,11,13a,14,14a,15,16,16a-hexadecahydrocyclopropa[e]pyrrolo[1,2-a][1,4]diazacyclopentadecin-6-yl)carbamate]",EC50,[1]; [3],1.01 to 5 nM
same,EC50,[2]; [4],1.01 to 5 nM
"CCOc1nnc(O[C@@H]2C[C@H]3C(=O)N[C@]4(C(=O)NS(=O)(=O)C5CC5)C[C@H]4/C=C\CC[C@H](C)C[C@@H](C)[C@H](NC(=O)NC(C)(C)C)C(=O)N3C2)c2ccccc12 [Compound 5040, (2R,6S,7R,9S,13aS,14aR,16aS,Z)-6-(3-(tert-butyl)ureido)-N-(cyclopropylsulfonyl)-2-((4-ethoxyphthalazin-1-yl)oxy)-7,9-dimethyl-5,16-dioxo-1,2,3,5,6,7,8,9,10,11,13a,14,14a,15,16,16a-hexadecahydrocyclopropa[e]pyrrolo[1,2-a][1,4]diazacyclopentadecine-14a-carboxamide]",EC50,[1]; [3],> 87.4 nM
same,EC50,[2]; [4],> 87.4 nM
"CC[C@@H]1C[C@H](C)CC/C=C\[C@@H]2C[C@@]2(C(=O)NS(=O)(=O)C2(C)CC2)NC(=O)[C@@H]2C[C@@H](Oc3nccc4cc(OC)c(Cl)cc34)CN2C(=O)[C@H]1NC(=O)OC(C)(C)C(F)F [Compound 3226, 1,1-difluoro-2-methylpropan-2-yl((2R,6S,7R,9R,13aS,14aR,16aS,Z)-2-((7-chloro-6-methoxyisoquinolin-1-yl)oxy)-7-ethyl-9-methyl-14a-(((1-methylcyclopropyl)sulfonyl)carbamoyl)-5,16-dioxo-1,2,3,5,6,7,8,9,10,11,13a,14,14a,15,16,16a-hexadecahydrocyclopropa[e]pyrrolo[1,2-a][1,4]diazacyclopentadecin-6-yl)carbamate]",EC50,[1]; [3],0.51 to 1 nM
same,EC50,[2]; [4],1.01 to 5 nM
"C[C@@H]1CC/C=C\[C@@H]2C[C@@]2(C(=O)NS(=O)(=O)C2(C)CC2)NC(=O)[C@@H]2C[C@@H](Oc3nc(OCC(F)F)cc4c(Cl)cccc34)CN2C(=O)[C@@H](NC(=O)OC(C)(C)C(C)(F)F)[C@H](C)C1 [Compound 1110, 3,3-difluoro-2-methylbutan-2-yl((2R,6S,7R,9R,13aS,14aR,16aS,Z)-2-((5-chloro-3-(2,2-difluoroethoxyl)isoquinolin-1-yl)oxy)-7,9-dimethyl-14a-(((1-methylcyclopropyl)sulfonyl)carbamoyl)-5,16-dioxo-1,2,3,5,6,7,8,9,10,11,13a,14,14a,15,16,16a-hexadecahydrocyclopropa[e]pyrrolo[1,2-a][1,4]diazacyclopentadecin-6-yl)carbamate]",EC50,[1]; [5],< 5.46 nM
same,EC50,[2]; [6],< 5.46 nM
